Legend:
Experiment in all cases: cells
Assay type in all cases: cell-based
[1] = tested on: breast cancer MCF7 cell line; conditions: cultured 48 h, MTT
Description: (§1) A cell strain: Hepatoma HepG2, cervical cancer Hela, lung cancer A549, breast cancer MCF7 cell line and human normal liver cell HL7702 were purchased from Wuhan Boster Biological Technology Co., Ltd.;
(§2) HepG2, Hela, A549, MCF 7 cells in logarithmic growth phase and human normal hepatocytes HL7702 were centrifuged at 1500 rpm for 5 min, and the supernatant was discarded; the cells were digested with a suitable amount of trypsin, and then suspended with a suitable amount of culture medium (HepG2, Hela and HL7702 cells were suspended with penicillin-streptomycin RPMI1640 culture medium containing 10% calf serum, A549 and MCF 7 cells with penicillin-streptomycin high glucose DMEM culture medium containing 10% calf serum, to adjust the cell concentration to 1.5×10^4 cells/well, the cells were seeded in 96-well plates, and the following experimental groups were set:
(§3) 0.10 mL of the cell suspension was added to each well, and incubated at 37° C., 5% CO2 and saturated humidity for 12 h, and the culture medium was discarded when the cell density was nearly 70%. […] 100 μl of 5 mg/ml MTT was added per well, standing for 4 h at 37° C. 100 μl of DMSO was added to each well, followed by shaking on a shaker for 10 min at 37° C., the absorbance (OD) was measured at 492 nm, and the MTT ratio was calculated as the OD value of drug group/OD value of negative control group.

[2] = tested on: human normal liver cell HL7702; conditions: human normal hepatocytes HL7702, cultured 48 h, MTT
Description: as §1, §2, §3

[3] = tested on: lung cancer A549; conditions: cultured 48 h, MTT
Description: as §1, §2, §3

[4] = tested on: cervical cancer Hela; conditions: cultured 48 h, MTT
Description: as §1, §2, §3

[5] = tested on: Hepatoma HepG2; conditions: cultured 48 h, MTT
Description: as §1, §2, §3

Compound | IC50 [1] [µM] | IC50 [2] [µM] | IC50 [3] [µM] | IC50 [4] [µM] | IC50 [5] [µM] | IC50 ([1]; Homo sapiens) [µM] | IC50 ([2]; L02) [µM] | IC50 ([3]; Homo sapiens) [µM] | IC50 ([4]; Homo sapiens) [µM] | IC50 ([5]; Homo sapiens) [µM]
COc1cc(C2c3cc4c(cc3C(Nc3ccc5[nH]ccc5c3)C3COC(=O)C23)OCO4)cc(OC)c1OC (stereo not drawn) [Compound 15, 4β-NH-(5-aminoindole) podophyllotoxin] | 4.8 ± 0.9 | 30.5 ± 2.7 | 2.2 ± 0.9 | 3.8 ± 0.2 | 2.5 ± 0.6 | – | – | – | – | –
COc1cc([C@@H]2c3cc4c(cc3[C@@H](O[C@@H]3O[C@@H]5CO[C@@H](C)O[C@H]5[C@H](O)[C@H]3O)[C@H]3COC(=O)[C@H]23)OCO4)cc(OC)c1O [Etoposide, etoposide, reference compound] | – | – | – | – | – | 53.8 ± 5.6 | 24.6 ± 3.8 | 22.5 ± 1.8 | 21.4 ± 1.6 | 20 ± 1.3
COc1cc([C@@H]2c3cc4c(cc3[C@@H](Nc3ccc5c(c3N)C(=O)c3ccccc3C5=O)[C@@H]3COC(=O)[C@H]23)OCO4)cc(OC)c1OC [Compound 3, 4β-NH-(1,2-diaminoanthraquinone) podophyllotoxin] | 17.5 ± 2.1 | > 100 | > 100 | 24.6 ± 3.2 | 52 ± 8.4 | – | – | – | – | –
COc1cc([C@@H]2c3cc4c(cc3[C@@H](Nc3cccc5ccc(C)nc35)[C@@H]3COC(=O)[C@H]23)OCO4)cc(OC)c1OC [Compound 11, 4β-NH-(8-aminoquinaldine) podophyllotoxin] | 1 ± 0.2 | > 100 | 3 ± 0.4 | 1.5 ± 0.1 | 1.6 ± 0.1 | – | – | – | – | –
COc1cc(C2c3cc4c(cc3C(Nc3cccc5cc[nH]c35)C3COC(=O)C23)OCO4)cc(OC)c1O (stereo not drawn) [Compound 36, 4β-NH-(7-aminoindole)-4′-demethylepipodophyllotoxin] | 8 ± 5.5 | 31.5 ± 3.2 | 19.5 ± 1.5 | 15.4 ± 6.1 | 15.4 ± 2.2 | – | – | – | – | –
COc1cc(C2c3cc4c(cc3C(Nc3ccc5ncccc5c3)C3COC(=O)C23)OCO4)cc(OC)c1OC (stereo not drawn) [Compound 7, 4β-NH-(6-aminoquinoline) podophyllotoxin] | 0.6 ± 0.03 | > 100 | 0.3 ± 0.04 | 0.7 ± 0.03 | 0.8 ± 0.01 | – | – | – | – | –
COc1cc([C@@H]2c3cc4c(cc3[C@@H](Nc3cccc5cc[nH]c35)[C@@H]3COC(=O)[C@H]23)OCO4)cc(OC)c1OC [Compound 17, 4β-NH-(7-aminoindole) podophyllotoxin] | 0.8 ± 0.1 | 38.4 ± 2.6 | 1 ± 0.1 | 0.8 ± 0.1 | 1.9 ± 0.2 | – | – | – | – | –
COc1cc(C2c3cc4c(cc3C(Nc3cccc5cnccc35)C3COC(=O)C23)OCO4)cc(OC)c1OC (stereo not drawn) [Compound 9, 4β-NH-(5-aminoisoquinoline) podophyllotoxin] | 1.4 ± 0.3 | 16.3 ± 2.8 | 2.3 ± 0.1 | 3.1 ± 0.2 | 4.1 ± 1.1 | – | – | – | – | –
4β-NH-(6-indazolamine)-4′-demethylepipodophyllotoxin [Compound 32] | 21.4 ± 5.9 | 17.7 ± 2.2 | 25.6 ± 3.7 | 6.4 ± 1.8 | 19.4 ± 1.5 | – | – | – | – | –
COc1cc(C2c3cc4c(cc3C(Nc3cccc5cnccc35)C3COC(=O)C23)OCO4)cc(OC)c1O (stereo not drawn) [Compound 28, 4β-NH-(5-aminoisoquinoline)-4′-demethylepipodophyllotoxin] | 2.5 ± 0.9 | 19.8 ± 2.1 | 1.4 ± 0.6 | 1.9 ± 0.9 | 2.8 ± 1.6 | – | – | – | – | –
COc1cc(C2c3cc4c(cc3C(Nc3ccc5c(c3N)C(=O)c3ccccc3C5=O)C3COC(=O)C23)OCO4)cc(OC)c1O (stereo not drawn) [Compound 22, 4β-NH-(1,2-diaminoanthraquinone)-4′-demethylepipodophyllotoxin] | 18.1 ± 2.8 | > 100 | > 100 | > 100 | > 100 | – | – | – | – | –
COc1cc([C@@H]2c3cc4c(cc3[C@@H](Nc3cccc5ncccc35)[C@@H]3COC(=O)[C@H]23)OCO4)cc(OC)c1OC [Compound 8, 4β-NH-(5-aminoquinoline) podophyllotoxin] | > 100 | > 100 | > 100 | > 100 | > 100 | – | – | – | – | –
COc1cc(C2c3cc4c(cc3C(Nc3cccc5c3C(=O)c3ccccc3C5=O)C3COC(=O)C23)OCO4)cc(OC)c1OC (stereo not drawn) [Compound 1, 4β-NH-(1-aminoanthraquinone) podophyllotoxin] | 0.7 ± 0.01 | > 100 | 0.2 ± 0.01 | 0.7 ± 0.1 | 0.9 ± 0.05 | – | – | – | – | –
COc1cc(C2c3cc4c(cc3C(Nc3ccc5ncccc5c3)C3COC(=O)C23)OCO4)cc(OC)c1O (stereo not drawn) [Compound 26, 4β-NH-(6-aminoquinoline)-4′-demethylepipodophyllotoxin] | 4.3 ± 0.8 | 22.8 ± 4.2 | 2 ± 0.5 | 5.7 ± 1.1 | 10 ± 1.9 | – | – | – | – | –
COc1cc(C2c3cc4c(cc3C(Nc3cccc5c3C(=O)c3cccc(N)c3C5=O)C3COC(=O)C23)OCO4)cc(OC)c1OC (stereo not drawn) [Compound 4, 4β-NH-(1,5-diaminoanthraquinone) podophyllotoxin] | 3.4 ± 0.6 | > 100 | 2.2 ± 0.3 | 4.6 ± 0.2 | 4.7 ± 0.4 | – | – | – | – | –
COc1cc(C2c3cc4c(cc3C(Nc3cccc5c3C(=O)c3ccccc3C5=O)C3COC(=O)C23)OCO4)cc(OC)c1O (stereo not drawn) [Compound 20, 4β-NH-(1-aminoanthraquinone)-4′-demethylepipodophyllotoxin] | 2.3 ± 0.1 | 53.7 ± 5.3 | 1.8 ± 0.2 | 8.5 ± 2.1 | 8.8 ± 2.1 | – | – | – | – | –
COc1cc(C2c3cc4c(cc3C(Nc3ccc5c(c3)C(=O)c3ccccc3C5=O)C3COC(=O)C23)OCO4)cc(OC)c1OC (stereo not drawn) [Compound 2, 4β-NH-(2-aminoanthraquinone) podophyllotoxin] | 2.9 ± 0.1 | > 100 | 2.9 ± 0.4 | 2.5 ± 0.3 | 9.6 ± 0.8 | – | – | – | – | –

From patent US11319328B2 (priority 2017, dated 2022)
